Test results as given in patent EP3355943B1, “METHODS AND SYSTEMS FOR TREATING MEDICAL DEVICES AND FLUIDS” (Ethicon, Inc., priority 2015, dated 2017).
Marks after values point to notes of the source that are not given here.

Test: Kinetics of removal of LPS with different agitation techniques in presence of stearate salts
Type: biochemical
Design: Endotoxin Detected: unit not given here
Settings: for Endotoxin Detected (EU) / Endotoxin Detected: 5mL SRW, baseline 1,502; for Percent (%) Removed: vs SRW Baseline; for Endotoxin Detected: Table 18
Procedure: 5mL of SRW was added to each of the tubes. Each solution was tested for endotoxin removal after agitation based on with sonication, vortexing, or test tube rolling. Sonication samples were sonicated at each indicated time interval for 30 seconds at a magnitude of 30. Vortex samples were vortexed at each indicated time interval for 30 seconds at 2500 RPM. Rolling samples were constantly rolling at 10 rpm. The samples were tested on the MCS for endotoxin at 1 minute, 20 minutes, 40 minutes, 60 minutes, and 80 minutes.

Row | Compound | Percent (%) Removed (Rolling, 1 minute) | Percent (%) Removed (Rolling, 20 minutes) | Percent (%) Removed (Rolling, 40 minutes) | Percent (%) Removed (Rolling, 60 minutes) | Percent (%) Removed (Rolling, 80 minutes) | Percent (%) Removed (Sonication, 1 minute) | Percent (%) Removed (Sonication, 20 minutes) | Percent (%) Removed (Sonication, 40 minutes) | Percent (%) Removed (Sonication, 60 minutes) | Percent (%) Removed (Sonication, 80 minutes) | Percent (%) Removed (Vortexing, 1 minute) | Percent (%) Removed (Vortexing, 20 minutes) | Percent (%) Removed (Vortexing, 40 minutes) | Percent (%) Removed (Vortexing, 60 minutes) | Percent (%) Removed (Vortexing, 80 minutes) | further results
1 | CCCCCCCCCCCCCCCCCC(=O)O [Magnesium Stearate] | 29.4% | 25.4% | 29.4% | 25.4% | 20.8% | 50.5% | 52.3% | 45.1% | 41.1% | 53.2% | 41.1% | 33.4% | 40% | 36.2% | 29.4% | Endotoxin Detected (EU) (Rolling, 1 minute): 1,060 EU; Endotoxin Detected (EU) (Rolling, 20 minutes): 1,120 EU; Endotoxin Detected (EU) (Rolling, 40 minutes): 1,060 EU; Endotoxin Detected (EU) (Rolling, 60 minutes): 1,120 EU; Endotoxin Detected (EU) (Rolling, 80 minutes): 1,190 EU; Endotoxin Detected (EU) (Sonication, 1 minute): 743 EU; Endotoxin Detected (EU) (Sonication, 20 minutes): 716 EU; Endotoxin Detected (EU) (Sonication, 40 minutes): 824 EU; Endotoxin Detected (EU) (Sonication, 60 minutes): 884 EU; Endotoxin Detected (EU) (Sonication, 80 minutes): 703 EU; Endotoxin Detected (EU) (Vortexing, 1 minute): 884 EU; Endotoxin Detected (EU) (Vortexing, 20 minutes): 1,000 EU; Endotoxin Detected (EU) (Vortexing, 40 minutes): 901 EU; Endotoxin Detected (EU) (Vortexing, 60 minutes): 958 EU; Endotoxin Detected (EU) (Vortexing, 80 minutes): 1,060 EU
2 | Aluminum Monostearate | 85.3% | 16.1% | 17.4% | 55.3% | 18.8% | 58.3% | 73% | 75% | 71.1% | 80.6% | 45.6% | 43.5% | 47.7% | 46.7% | 49.6% | Endotoxin Detected (Rolling, 1 minute): 221*; Endotoxin Detected (Rolling, 20 minutes): 1,260; Endotoxin Detected (Rolling, 40 minutes): 1,240; Endotoxin Detected (Rolling, 60 minutes): 672; Endotoxin Detected (Rolling, 80 minutes): 1,220; Endotoxin Detected (Sonication, 1 minute): 626; Endotoxin Detected (Sonication, 20 minutes): 406; Endotoxin Detected (Sonication, 40 minutes): 375; Endotoxin Detected (Sonication, 60 minutes): 434; Endotoxin Detected (Sonication, 80 minutes): 291; Endotoxin Detected (Vortexing, 1 minute): 817; Endotoxin Detected (Vortexing, 20 minutes): 849; Endotoxin Detected (Vortexing, 40 minutes): 786; Endotoxin Detected (Vortexing, 60 minutes): 801; Endotoxin Detected (Vortexing, 80 minutes): 757
